Measured values from US20240261333A1, “NOVEL TARGETS FOR ENHANCING ANTI-TUMOR IMMUNITY” (THE BROAD INSTITUTE, INC., priority 2021, published 2024).

Columns and labels:
[1] = tested on: CCLF_PANC_0014_T primary patient-derived pancreatic adenocarcinoma; experiment: T cell cytotoxicity assay, primary patient-derived pancreatic adenocarcinoma against HER2 CAR T cells; type: cell-based, human; conditions: CCLF_PANC_0014_T treated with small molecule inhibitor
Protocol: Expanded T cells were thawed and maintained in culture media for 8-10 h before incubation with cancer cells. Cancer cells were seeded in 96-well plates and allowed to attach for 3-4 h before T cells were added at the appropriate effector to target cell (E:T) ratio. Paired controls with no T cells added were included for each condition. After 18 h, cancer cells were washed twice with PBS to remove T cells, passaged, and cultured for 2 days. Primary patient-derived cell models were not passaged after T cell co-culture. Viability was measured using CellTiter-Glo (Promega G7571). For each E:T ratio, percent survival was calculated as viability of the cells incubated with T cells divided by viability of the paired control that was not incubated with T cells. For example, CD274-overexpressing melanoma cells that were co-cultured with ESO T cells were compared to CD274-overexpressing melanoma cells that were cultured without T cells in parallel. As an alternative cytotoxicity assay, A375 cells stably expressing Gaussia luciferase were co-cultured with ESO T cells. At each time point, 10% of cell culture media was used for the Gaussia luciferase assay (Targeting Systems GAR-2B) to directly measure cytotoxicity. […]

[2] = molecular target: T1, human endoplasmic reticulum a-1,2-mannosidase I (Homo sapiens, UniProt Q9UKM7); conditions: human enzyme; cited from earlier work
T1 sequence (Q9UKM7 1-699): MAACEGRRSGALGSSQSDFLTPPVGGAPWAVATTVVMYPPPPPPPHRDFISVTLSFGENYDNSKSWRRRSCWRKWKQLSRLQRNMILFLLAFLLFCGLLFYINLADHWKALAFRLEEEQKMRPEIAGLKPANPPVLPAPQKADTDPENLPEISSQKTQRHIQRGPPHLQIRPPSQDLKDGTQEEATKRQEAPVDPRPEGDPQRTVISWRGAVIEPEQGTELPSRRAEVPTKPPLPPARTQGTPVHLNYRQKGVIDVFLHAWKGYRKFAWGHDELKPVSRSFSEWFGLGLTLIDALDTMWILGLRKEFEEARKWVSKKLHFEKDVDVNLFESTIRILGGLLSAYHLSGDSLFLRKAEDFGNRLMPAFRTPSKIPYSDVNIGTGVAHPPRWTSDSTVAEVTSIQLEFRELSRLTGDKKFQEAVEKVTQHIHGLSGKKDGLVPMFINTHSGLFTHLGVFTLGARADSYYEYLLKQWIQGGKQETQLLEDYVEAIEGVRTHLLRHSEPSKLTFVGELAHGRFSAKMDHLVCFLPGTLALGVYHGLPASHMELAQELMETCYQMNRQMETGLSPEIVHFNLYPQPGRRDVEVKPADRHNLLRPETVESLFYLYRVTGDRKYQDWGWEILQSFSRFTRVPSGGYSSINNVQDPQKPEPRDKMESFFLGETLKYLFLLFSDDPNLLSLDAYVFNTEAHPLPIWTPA

[3] = tested on: A375 cells overexpressing B3GNT2; experiment: Intra- and extra-cellular poly-LacNAc by tomato lectin staining, flow cytometry; type: cell-based, human; conditions: A375 overexpressing B3GNT2, pretreated with different concentrations of inhibitor
Protocol: For glycosylation inhibition, cells were treated with 20 μg/mL Kifunensine (Cayman Chemical 10009437) or 2 mM Benzyl 2-acetamido-2-deoxy-alpha-D-galactopyranoside (BAG; Millipore Sigma B4894-100MG) for 48 h to inhibit N- and O-glycosylation respectively unless otherwise indicated. For MCL1 inhibition, cells were treated with 1-10 μM of S63845 (Selleck Chemicals S8383) or AZD5991 (Selleck Chemicals S8643) for 4 h before incubation with T cells. Both glycosylation and MCL1 inhibitors were maintained at indicated concentrations during co-culture with T cells.
Per condition, 5×10^5 cells were pelleted at 200×g for 5 min and washed once with PBS. Cell were fixed in 4% Formaldehyde in PBS at 4° C. for 10 mins. […] For each sample, 10,000 cells were analyzed on a CytoFLEX Flow Cytometer (Beckman Coulter) and quantified with FlowJo (FlowJo). For each experiment, median fluorescence values for 3 biological replicates were compared to determine statistical significance.

## O=C1N[C@@H]2[C@@H](O)[C@@H](O)[C@H](O)[C@@H](CO)N2C1=O [kifunensine]
[1]
  Cell survival against T cell cytotoxicity, primary patient-derived pancreatic adenocarcinoma model: reduced survival
[2]
  Ki: 130 nM
[3]
  poly-LacNAc measured by tomato lectin staining: reduced poly-LacNAc added by B3GNT2 in a dosage-dependent manner
